Experiment [1] in a line: Sensory descriptive analysis of ice tea prototypes, sweetness factor (Example 1). The note with it: HC 10 ppm and/or HT 3 ppm.
Experiment [2] in a line: Sensory profiling of ice tea preparation, HT/HC ratio 1:3.33 (Example 2). The note with it: tea base, 4 wt.-% HFCS, 0.10 wt.-% citric acid, HT 3 ppm and/or HC 10 ppm; for Acidity / Balance / Bitter / Complexity / Fruity-Juicy / Long lasting / Off-Notes / Onset Sweetness / Overall Sweetness / Syrupy / Tea: line scale (10 cm). The method, then: In order to further validate the insights derived from Example 1, the interaction and main effects of HT and HC are to be shown in a setup in which a drinkable preparation with a tea base, 0.05 wt.-% lemon flavor, 4 wt.-% high fructose corn syrup, 0.1 wt.-% citric acid and 0.03 wt.-% trisodium citrate was prepared. That preparation was divided into four samples by varying the dosage of HC and HT resulting in one sample containing no HC and no HT (control), containing 10 ppm HC and no HT (HC main effect), containing no HC and 3 ppm HT (HT main effect) and, respectively, containing 10 ppm HC and 3 ppm HT (HT×HC interaction effect). […] The final preparations were profiled by an expert panel consisting of ten educated panelists (two measurements). Different sensorial attributes (ice tea language with focus on sweetness) were assessed and scored on an unstructured line scale (10 cm) for its perceived intensity. The results of the testing are shown below in Table 2 as well as in FIG. 1 and FIG. 2.

A short description of experiment [3]: Sensory profiling of ice tea preparation, HT/HC ratios 1:1 and 1:6 (Example 4). The note with it: tea base, 5 wt.-% HFCS, 0.18 wt.-% citric acid, line scale (10 cm). The procedure: In order to further validate the insights derived from Example 1 and 2, the interaction and main effects of HT and HC are to be shown in a setup in which a drinkable preparation with a tea base, 0.05 wt.-% lemon flavor, 5 wt.-% high fructose corn syrup, 0.18 wt.-% citric acid and 0.03 wt.-% trisodium citrate was prepared. That preparation was divided into four samples by varying the dosage of HT and HC resulting in one sample containing no HT and no HC (control), containing 5 or 3 ppm HT and no HC (HT main effect), containing no HT and 5 or 18 ppm HC (HC main effect) and, respectively, containing 5 or 3 ppm HT and or 18 ppm HC (HT×HC interaction effect). […] The final preparations were profiled by an expert panel consisting of seven educated panelists (two measurements). Different sensorial attributes (ice tea language with focus on sweetness) were assessed and scored on an unstructured line scale (10 cm) for its perceived intensity. The results of the testing are shown below in Table 4 and 5 as well as in FIG. 4 to FIG. 7.

A short description of experiment [4]: Dosing tests with an excess of hesperetin, sensory ranking (Example 3). The method, then: A drinkable preparation with 7 wt.-% sucrose and 0.15 wt.-% citric acid was prepared. This preparation was used as a base composition for dosing tests with different dosing regimens of hesperetin dihydrochalcone and hesperetin. The different samples were evaluated by an expert panel consisting of five educated panelists and ranked on a scale from 0 to 9. The results of the testing are shown below in Table 3 as well as in FIG. 3.

For experiment [5] the following is noted: J. Chem. Senses 1979, 4(1), 35-47; cited from earlier work.
Setting [6] is: Acesulfame K Ice tea Base, 60 ppm.
[7] abbreviates: HFCS Ice tea Base, 2 wt. % High Fructose corn sirup.
The mark [8] stands for this setting: Invert Sugar Syrup Ice tea Base, 2 wt. % invert sugar syrup.
The mark [9] stands for this setting: Reb A Ice tea Base, 60 ppm rebaudioside A.
Where [10] appears, read: Reb A/Reb D Ice tea Base, 60 ppm rebaudioside A/60 ppm rebaudioside D.
[11] abbreviates: Reb A/Reb M Ice tea Base, 60 ppm rebaudioside A/45 ppm rebaudioside M.
Where [12] appears, read: Reb M/Reb D Ice tea Base, 45 ppm rebaudioside M/60 ppm rebaudioside D.
Setting [13] is: Sucralose Ice tea Base, 100 ppm sucralose.
Setting [14] is: Sugar Free Ice tea Base, no added sugar/sweetener.

Consider four molecules from US12568998B2, “Flavouring composition with balanced taste profile” (SYMRISE AG, priority 2021, dated 2026).

Entries after “also recorded” stand apart in the source; their conditions may differ.

In the case of `COc1ccc(CCC(=O)c2c(O)cc(O)cc2O)cc1O` [HC, hesperetin dihydrochalcone], in experiment [1] (setting [6]), the “ANOVA (sweetness factor)” value is −0.1. For the same molecule, the “ANOVA (sweetness factor)” value in experiment [1] (setting [7]) is on record as −0.9. Moreover, the “ANOVA (sweetness factor)” value in experiment [1] (setting [8]) is on record as −1. Moreover, the “ANOVA (sweetness factor)” value in experiment [1] (setting [9]) is recorded as −0.5. Further, the “ANOVA (sweetness factor)” value in experiment [1] (setting [10]) was −0.1. The “ANOVA (sweetness factor)” value in experiment [1] (setting [11]) turned out to be 0. The “ANOVA (sweetness factor)” value in experiment [1] (setting [12]) is −0.3. Further, in experiment [1] (setting [13]), the “ANOVA (sweetness factor)” value is on record as −0.8. Besides, the “ANOVA (sweetness factor)” value in experiment [1] (setting [14]) was −1.3. In experiment [2], the Remarks entry was “lingering,; also recorded: sweetener”, the Acidity came out at 3.22, the Balance is reported as 3.50 and the Bitter came out at 2.58. Also, in experiment [2], the Complexity was found to be 3.62, the Fruity-Juicy amounted to 3.88, the Long lasting was found to be 3.90 and the Off-Notes is listed as 2.25. In experiment [2], the “Onset Sweetness” value was 4.39, the “Overall Sweetness” value is 4.80, the Syrupy was 3.70 and the Tea was found to be 4.08. Besides, in experiment [3] (HT 3 ppm and/or HC 18 ppm), the Acidity was found to be 3.12, the Balance is 3.66, the Bitter turned out to be 1.94 and the Complexity is 4.58. In addition, in experiment [3] (HT 3 ppm and/or HC 18 ppm), the Fruity-Juicy came to 4.27, the Long lasting is listed as 4.20, the Off-Notes came to 1.01 and the “Onset Sweetness” value turned out to be 4.99. Further, in experiment [3] (HT 3 ppm and/or HC 18 ppm), the “Overall Sweetness” value is on record as 5.60, the Syrupy stood at 4.32 and the Tea stood at 4.01. Besides, in experiment [3] (HT 5 ppm and/or HC 5 ppm), the Acidity is listed as 3.46, the Balance is given as 3.68, the Bitter stood at 1.93 and the Complexity is recorded as 3.90. In experiment [3] (HT 5 ppm and/or HC 5 ppm), the Fruity-Juicy was found to be 4.68, the Long lasting is 3.11, the Off-Notes was found to be 0.70 and the “Onset Sweetness” value came to 4.19. In addition, in experiment [3] (HT 5 ppm and/or HC 5 ppm), the “Overall Sweetness” value is 4.46, the Syrupy was 3.96 and the Tea stood at 4.11.
For `COc1ccc([C@@H]2CC(=O)c3c(O)cc(O)cc3O2)cc1O` [HT, hesperetin], the “ANOVA (sweetness factor)” value in experiment [1] (setting [6]) is −2.4. Besides, the “ANOVA (sweetness factor)” value in experiment [1] (setting [7]) was −3.2. The “ANOVA (sweetness factor)” value in experiment [1] (setting [8]) is reported as −3.3. For the same molecule, the “ANOVA (sweetness factor)” value in experiment [1] (setting [9]) is −2.8. The “ANOVA (sweetness factor)” value in experiment [1] (setting [10]) was −2.4. In addition, the “ANOVA (sweetness factor)” value in experiment [1] (setting [11]) is recorded as −2.3. Further, the “ANOVA (sweetness factor)” value in experiment [1] (setting [12]) is given as −2.6. In addition, in experiment [1] (setting [13]), the “ANOVA (sweetness factor)” value is reported as −3.1. The “ANOVA (sweetness factor)” value in experiment [1] (setting [14]) was −3.6. The “hesperetin concentration exhibiting off-tastes in the preparation” value in experiment [4] is “more than 30 ppm”. Further, in experiment [2], the Acidity came to 3.71, the Balance is recorded as 3.20, the Bitter turned out to be 2.93 and the Complexity was 3.06. Also, in experiment [2], the Fruity-Juicy amounted to 3.60, the Long lasting came out at 2.32, the Off-Notes stood at 1.85 and the “Onset Sweetness” value came to 3.14. Further, in experiment [2], the “Overall Sweetness” value is 3.39, the Syrupy turned out to be 2.67 and the Tea stood at 4.30. In experiment [3] (HT 3 ppm and/or HC 18 ppm), the Acidity came out at 4.11, the Balance is recorded as 3.24, the Bitter is on record as 2.21 and the Complexity was 3.99. For the same molecule, in experiment [3] (HT 3 ppm and/or HC 18 ppm), the Fruity-Juicy amounted to 4.19, the Long lasting is recorded as 2.61, the Off-Notes came to 0.77 and the “Onset Sweetness” value amounted to 4.22. Moreover, in experiment [3] (HT 3 ppm and/or HC 18 ppm), the “Overall Sweetness” value is recorded as 4.53, the Syrupy is 3.72 and the Tea worked out at 4.39. Besides, in experiment [3] (HT 5 ppm and/or HC 5 ppm), the Acidity came to 4.06, the Balance amounted to 3.94, the Bitter amounted to 1.87 and the Complexity turned out to be 3.87. Moreover, in experiment [3] (HT 5 ppm and/or HC 5 ppm), the Fruity-Juicy came out at 4.32, the Long lasting is 2.79, the Off-Notes was found to be 0.58 and the “Onset Sweetness” value stood at 3.89. For the same molecule, in experiment [3] (HT 5 ppm and/or HC 5 ppm), the “Overall Sweetness” value was found to be 4.07, the Syrupy amounted to 3.59 and the Tea is 4.16.
For the molecule `COc1ccc(CCC(=O)c2ccccc2O)cc1O` [dihydrochalcone (1)], the taste result in experiment [5] is “intensively sweet tasting”.
For `COc1ccc(CCC(=O)c2c(O)cccc2O)cc1O` [dihydrochalcone (2)], the taste result in experiment [5] is on record as “tasteless”.
